In patent US20110072541A1, “MARKER FREE TRANSGENIC PLANTS ENGINEERING THE CHLOROPLAST GENOME WITHOUT THE USE OF ANTIBIOTIC SELECTION” (priority 2000, published 2011):
“Also recorded” adds a separate entry of the source. Where a name gives a salt, the structure may show the parent alone.

Legend:
[1] = system: Tobacco (Nicotiana tabacum var. Petit Havana) leaf discs; experiment: Selection of bombarded tobacco leaf discs on RMOP selection medium (chloroplast transformation with pLD-BADH); type: cell-based; settings: for time until resistant clones formed green shoots: after initiation of selection; for leaf discs responded / resistant shoots per responding leaf disk: bombarded leaf discs under selection; for average resistant shoots per plate: spectinomycin after 45 days; for resistant shoots regenerated overall: ten bombardments (spectinomycin), six bombardments (betaine aldehyde)
Description: Expression cassettes of the chloroplast integration vector contain the chimeric aadA gene and the BADH gene driven by the constitutive 16S rRNA promoter and regulated by the 3′ untranslated region of the plastid psbA gene. The chimeric aadA gene encoding aminoglycoside 3′ adenyltransferase confers spectinomycin resistance in chloroplasts enabling selection of the transformants on spectinomycin dihydrochloride. On the other hand, BADH converts the toxic betaine aldehyde in cells to glycine betaine. When present, this pathway is compartmentalized within chloroplasts (Nuccio, et al. 1999). To facilitate translation of the dicistronic mRNA, independent Shine-Dalgarno (SD) sequences were provided to the aadA and BADH genes upstream of the initiation codons. In order to accurately compare transformation efficiency of both selectable markers under identical bombardment and transformation conditions, aadA and BADH genes were inserted into the same vector, at the same site. Bombarded leaves were treated in identical manner except the addition of selection reagent.
Tobacco (Nicotiana tabacum var. Petit Havana) was grown aseptically by germination of seeds in MSO medium. This medium contains MS salts (4.3 g/liter), B5 vitamin mixture (myoinositol, 100 mg/liter; thiamine-HCl, 10 mg/liter; nicotinic acid, 1 mg/liter; pyridoxine-HCl, 1 mg/liter), sucrose (30 g/liter) and phytagar (6 g/liter) at pH 5.8. Fully expanded, dark green leaves of about two month old plants were used for bombardment.
(§1) Leaves were placed abaxial side up on Whatman No. 1 filter papers laying on the RMOP medium (Daniell 1993) in standard petri plates (100×15 mm) for bombardment. Microprojectiles were coated with plasmid DNA (pLD-BADH) and bombardments were carried out with the biolistic device PDS 1000/He (Bio-Rad) as described by Daniell (1997). Following bombardment, petri plates were sealed with parafilm and incubated at 24° C. under 16 hour photoperiod. Two days after bombardment, leaves were chopped into small pieces of ˜5 mm^2 in size and placed on the selection medium (RMOP containing 500 μg/ml of spectinomycin dihydrochloride or 5-10 mM betaine aldehyde) with abaxial side touching the medium in deep (100×25 mm) petri plates. The regenerated resistant shoots were chopped into small pieces (˜2 mm^2) and subcloned into fresh deep petri plates containing the same selection medium. Resistant shoots from the second culture cycle were transferred to the rooting medium (MSO medium supplemented with IBA, 1 mg/liter containing appropriate selectable marker). Rooted plants were transferred to soil and grown at 26° C. under 16 hour photoperiod.
(§2) The entire process of regeneration, starting from bombardment until transfer to soil, takes about 3-6 months for spectinomycin selection and 2-3 months for betaine aldehyde selection. FIG. 3 and Table 1 show differences between the two selection processes. […] Leaf disks in FIG. 3 under betaine aldehyde selection appear partially green because they were photographed 12 days after the initiation of the selection process whereas the disc photographed on spectinomycin were 45 days after initiation of the selection process. In spite of the short period of selection one leaf disk was almost bleached (FIG. 3D) and all of them were killed after 30 days. Under 10 mM betaine aldehyde selection, control untransformed samples were killed (turned black, 3G-1) whereas transgenic leaves produced new shoots (FIG. 3G, 2-4).
When the leaf discs were selected for spectinomycin resistance, only 15% of the discs responded and an average of one resistant shoot per plate was observed after 45 days. From each callus, all resistant shoots are considered to represent an individual clone. Under betaine aldehyde selection 80% of the discs responded and an average of 25 resistant shoots per plate was observed. […]

[2] = system: untransformed N. tabacum Petit Havana leaf discs; experiment: Toxicity of the selection agent to untransformed control leaf discs; type: cell-based, Nicotiana tabacum; settings: for effect on leaf discs under selection: RMOP selection medium
Description: A. N. tabacum Petit Havana control in RMOP medium containing spectinomycin after 45 days. B. Bombarded leaf discs selected on spectinomycin in RMOP medium after 45 days. C. Spectinomycin resistant clones cultured again ([…]) to obtain homoplasmy. D. Petit Havana control in RMOP medium containing betaine aldehyde after 12 days of culture. E. Bombarded leaf discs selected on betaine aldehyde in RMOP medium after 12 days of culture; arrow indicates unbombarded leaf disc as control. Note that 23 shoots are formed on a disc selected on betain aldehyde against 1-2 shoots per disc on spectinomycin. F. Betaine aldehyde resistant clones cultured again (second round) to obtain homoplasmy. G. Selection on 10 mM betaine aldehyde of untransformed (1) and transgenic (2-4) leaf discs.
as §1, §2

resistant tobacco clones [3] = experiment: PCR screening of resistant clones for chloroplast integration; parameters: species or system Nicotiana tabacum
Description: Integration of a foreign gene into the chloroplast genome was confirmed by PCR screening of chloroplast transformants (FIG. 4). Primers were designed to eliminate mutants, nuclear integration and to determine whether the integration of foreign genes had occurred in the chloroplast genome at the directed site by homologous recombination. The strategy to distinguish between nuclear and chloroplast transgenic plants was to land one primer (3P) on the native chloroplast genome adjacent to the point of integration and the second primer (3M) on the aadA gene (FIG. 1). This primer set generated 1.6 kb PCR product in chloroplast transformants (FIG. 4). Because this product cannot be obtained in nuclear transgenic plants, the possibility of nuclear integration can be eliminated. […] The rest of the resistant shoots may be either escapes or nuclear transformants. […] In contrast, nearly 60% of the spectinomycin resistant clones were mutants. Other labs have recently reported as high as 90% mutants among spectinomycin resistant clones (Eibl et al. 1999; Sidorov et al. 1999).

tobacco seeds = experiment: Seed germination on medium containing the selection agent; type: in vivo, Nicotiana tabacum
Description: Lack of pleiotropic effects. […] They grew normally, flowered and set seeds. […] […] This may be due to the presence of an active endogenous BADH or similar enzymatic activity in non-green plastids during germination.

resistant tobacco clones [4] = settings: Eibl et al. 1999; Sidorov et al. 1999; cited from earlier work

Compound	entire process of regeneration, bombardment until transfer to soil [1]	time until resistant clones formed green shoots [1]	leaf discs responded [1] [%]	average resistant shoots per plate [1]	resistant shoots regenerated overall [1]	effect on leaf discs under selection [2]	mutants among resistant clones (resistant tobacco clones [3]; applicant's clones) [%]	germination of seeds from chloroplast transgenic plants (tobacco seeds; MS medium, 500 μg/ml spectinomycin)	mutants among resistant clones, other labs (resistant tobacco clones [4]) [%]	efficiency of transformation relative to spectinomycin selection ([1]; betaine aldehyde vs spectinomycin selection) [fold]	resistant shoots per responding leaf disk [1]	resistant shoots per responding leaf disk ([1]; listed as betain aldehyde)	effect on untransformed leaf discs ([2]; 10 mM betaine aldehyde)	time after which all control leaf disks were killed ([2]; Petit Havana control in RMOP with betaine aldehyde) [days]	resistant clones with foreign genes integrated into the chloroplast genome (PCR) (resistant tobacco clones [3]; after the first culture cycle)	germination of untransformed seeds (tobacco seeds; betaine aldehyde 10-15 mM)
CN[C@@H]1[C@H](O)[C@H](NC)[C@H]2O[C@@]3(O)C(=O)C[C@@H](C)O[C@H]3O[C@@H]2[C@H]1O [Spectinomycin, spectinomycin dihydrochloride]	3-6 months	about 45 days	15	one	10	leaf discs continued to grow but pigments were bleached	~60	germinated and grew normally	≤ 90							
C[N+](C)(C)CC=O [betaine aldehyde]	2-3 months	≤ 12 days	80	25	more than 150	growth of the leaf discs was completely inhibited and photosynthetic pigments were degraded				25	≤ 23	23	death of untransformed leaf disc; also recorded: killed	30	11 out of 15	germinated
